Experimental data published in the NIST ThermoML archive (doi:10.1016/j.jct.2015.09.003).
Numbers after ± are expanded uncertainties.

Key:
[1] = Crystal; DTA
[2] = Molar enthalpy of transition or fusion; conditions: Crystal; DSC

Row | SMILES | Normal melting temperature [1] | Molar enthalpy of transition or fusion [2]
1 | CC(C)(C)C1=CC(=O)C(=O)C(C(C)(C)C)=C1 [3,5-di-tert-butyl-o-benzoquinone] | 115.4 ± 0.6 °C | 26.2 ± 0.59 kJ/mol
2 | CC(C)(C)C1=CC=C(C(C)(C)C)C(=O)C1=O [3,6-di-tert-butyl-o-benzoquinone] | 202.2 ± 0.6 °C | 28 ± 0.63 kJ/mol
